Like-named read-outs stand apart in the source and are kept apart here. *1 amine or outer side, *2 acyl side, *3 side chain or, on linkers, in order; H or OH if unused. Where a SMILES comes first, the peptide text is derived from it. Side-chain parts run from the residue outwards. [ ]: non-standard residue; d: D form. The star is where a group is joined. NH(4-amidinophenyl) = N=C(N)c1ccc(N*)cc1; dPhe(4-Cl) = N[C@H](Cc1ccc(Cl)cc1)C(=O)O; d2Nal = N[C@H](Cc1ccc2ccccc2c1)C(=O)O; dCit = NC(=O)NCCC[C@@H](N)C(=O)O; d3Pal = N[C@H](Cc1cccnc1)C(=O)O; Suc = O=C(CCC(=O)[*:2])[*:1]

For orientation: Kd means the constant that tells how readily two partners part at equilibrium. One may read the IC50 as the concentration that gives 50% inhibition.

In one series the test system is histamine release. In words: Histamine release in vitro.
Series [1] deals with T1, human LH-RH receptor (Homo sapiens, UniProt P30968).
T1 construct: expressed in transfected cells
T1 sequence (P30968 1-328): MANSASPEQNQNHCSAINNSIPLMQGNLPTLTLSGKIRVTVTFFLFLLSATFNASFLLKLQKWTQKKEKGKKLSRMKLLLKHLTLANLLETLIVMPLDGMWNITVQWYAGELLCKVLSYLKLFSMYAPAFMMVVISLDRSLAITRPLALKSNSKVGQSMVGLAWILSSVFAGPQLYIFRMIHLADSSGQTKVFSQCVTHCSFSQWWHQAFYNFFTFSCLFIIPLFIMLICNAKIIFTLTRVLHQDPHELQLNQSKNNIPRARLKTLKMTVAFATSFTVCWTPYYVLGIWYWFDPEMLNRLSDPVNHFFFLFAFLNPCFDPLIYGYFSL
In words: Competitive binding test (displacement of [125I] Cetrorelix) on cell clone L3.5/78. The protocol:
Method for the determination of the binding affinity (dissociation constant Kd):
The binding affinity was determined by a competitive binding test ("displacement binding experiment"; Beckers et al. Eur. J. Biochem. 231, 535-543, 1995). The radiolabelled ligand used is [^125 I] Cetrorelix (specific activity 5-10×10^5 dpm/pmol; dissolved in 20% v:v acetonitrile, 0.2% w:v albumin, 0.1% w:v TFA, ~80% v:v aqua). The binding ability of the iodinated peptide is between 60% and 85%. The non-labelled test compounds used are Cetrorelix, Example 1, Example 2 and […] in solution. The substances are employed in concentrations of 0.01 nM-1000 nM (Cetrorelix, Example 1, Example 2) or 0.01 μM-10 μM (Example 56).
The cells of the individual cell clone L3.5/78 verexpressing the human LH-RH receptor which are used for the binding test are removed with PBS/EDTA (PBS without Ca^2+ /Mg^2+ /1 mM EDTA) from a cell culture dish grown under non-confluent conditions, the cell count is determined and the cells are resuspended in incubation medium (Dulbecco's modified Eagle Medium with 4.5 g/l glucose, 10 mM Hepes pH 7.5, 0.5% w:v BSA, 1 g/l bacitracin, 0.1 g/l SBTI, 0.1% w:v NaN3) at a corresponding cell density. 200 μl of silicone/paraffin oil mixture (84/16% by volume) are initially introduced into special 400 μl reaction vessels (Renner, Beckman type) and 50 μl of the cell suspension (2.5×10^5 cells) are pipetted onto it. 50 μl of binding medium containing [^125 I] Cetrorelix and the compound to be tested at the appropriate concentration are added to the cell suspension on the silicone/paraffin oil layer. The mixture is then incubated with rotation for 60 min at 37° C. in a warm cabinet. After this step, it is centrifuged at 9000 rpm (room temperature) for 2 min in the Heraeus Biofuge 15 in the HTA 13.8 rotor. In the course of this, the cells pelletize through the silicone/paraffin oil layer and are thus separated from the binding medium. After centrifugation, the reaction vessels are shock-frozen in liquid N2 and the tip of the reaction vessel (cell pellet) is cut off with a pair of pincers and the tip containing the cell pellet (bound ligand [^125 I] Cetrorelix) and the supernatant (unbound, free ligand [^125 I] Cetrorelix) are transferred to counting tubes. To determine the maximum binding (Bo), no competitor is added. For the determination of non-specific binding, 1 μM unlabelled Cetrorelix is added for competition. At ≤10% of the total binding Bo, the non-specific binding is low. Quantification is carried out in a γ-counter; analysis is carried out using the EBDA/ligand V3.0 programme (McPherson, J. Pharmacol. Methods 14, 213-228, 1985). Plotting in the dose-response graph makes possible the estimation of the IC50 (concentration which causes 50% inhibition of the reaction at the receptor) and the EBDA/ligand programme calculates the dissociation constant Kd [nM] from this.
In general terms: Loss of bound radioactivity is the signal in a displacement assay; it reports binding, not function.

The next series can be described thus: Water solubility. It is filed as physicochemical.
In series [2] the test system is testosterone in the blood. In words: Hormone-suppressive action: testosterone suppression in the healthy male rat. Format: in vivo. The protocol: To determine the suppression of testosterone in the blood of healthy male rats, the substance was injected subcutaneously into the right flank of the animals. The dosage was 1.5 mg/kg in the case of Example 1 and Example 2 and 10 mg/kg in the case of Example 56. To check the testosterone values, about 300 μl of blood were taken from the animals from the sublingual vein at the times 0, 2, 4, 8 (only Example 56), 24, 48, 72 and 96 hours, and then every 3 days until the end of suppression. […] Example 56 (10 mg/kg s.c.) suppressed the testosterone level in all 5 animals even after 2 hours and maintained this action for up to 8 hours. At the next measuring point (24 h), the testosterone values rose again (FIG. 6).

In series [3] the target is T1, human LH-RH receptor. In words: Functional assay: inhibition of LH-RH-stimulated IP3 formation in cell clone L 3.5/78. Format: cell-based. The following applies: for IC50: stimulation with 10 nM LH-RH, estimated from dose-response curve. The protocol:
Method for the determination of IP3 (D-myo-[…]): a subconfluent culture of the cell clone (L 3.5/78) overexpressing the human LH-RH receptor is washed 1× with PBS, the cells are removed with PBS/EDTA and the cell suspension is pelletted. The cells are resuspended in incubation medium (Dulbecco's modified Eagle Medium with 4.5 g/l of glucose, 10 mM Hepes pH 7.5, 0.5% w:v BSA, 5 mM of LiCl, 1 g/l of bacitracin, 0.1 g/l of SBTI), aliquoted into 1.5 ml reaction vessels and preincubated at 37° C. for 30 min. 4×10^6 cells in a 500 μl volume are needed per measuring point. After the preincubation step, LH-RH (stock solution 0.5 mM in 10 mM tris pH 7.5, 1 mM dithiothreitol, 0.1% w:v BSA/Bachem Art # H4005) are added to the cell suspension at a final concentration of 10 nM. The action of an antagonist is tested by simultaneous addition at the corresponding concentration (for example 0.0316, 0.1, 0.316 etc. up to 100 nM for Example 2). As a negative control, cells without added LH-RH are incubated. After incubation at 37° C. for 15 min, IP3 formed is isolated from the cells by means of trichloroacetic acid (TCA) extraction. To this end, 500 μl of ice-cold 15% (w:v) TCA solution are added to the cell suspension. The resulting precipitate is pelletted by centrifugation at […] in the Heraeus Biofuge 15R centrifuge at 2000×g for 15 min. The supernatant of 950 μl is extracted 3× with 10 vol of cold, water-saturated diethyl ether in a 15 ml vessel standing on ice. After the last extraction step, the solution is adjusted to a pH of 7.5 with 0.5 M NaHCO3 solution.
The determination of the IP3 concentration in the cell extracts is carried out by means of a sensitive competitive binding test using an IP3 binding protein, labelled [^3 H]-IP3 and unlabelled IP3. To this end, an assay kit from Amersham (TRK 1000) is used; the determination is carried out as described in the assay protocol. After carrying out the various steps, 2 ml of scintillator for aqueous samples (Rotiszint Ecoplus) is finally added, the resuspended pellet containing the bound [^3 H]-IP3 is carefully mixed with it, and measured in a β-scintillation counter. The amount of cellular IP3 is calculated using a standard curve and a dose-response curve is set up. The IC50 can be estimated from the inflection point of this curve.

The mark [4] stands for this setting: [125I] Cetrorelix as ligand, single curves of FIG. 1, read-out: binding affinity as the dissociation constant Kd (competition curves of FIG. 1).
Setting [5] is: mean values from various experiments, number of experiments in brackets, read-out: Affinity human LH-RH receptor (dissociation constant Kd).
Where [6] appears, read: 10 mg/kg s.c., healthy male rats, all 5 animals.

As for `CC(=O)N[C@H](Cc1ccc2ccccc2c1)C(=O)N[C@H](Cc1ccc(Cl)cc1)C(=O)N[C@H](Cc1cccnc1)C(=O)N[C@@H](CO)C(=O)N[C@@H](Cc1ccc(O)cc1)C(=O)N[C@H](CCCCNC(=O)C1CNC(=O)N1)C(=O)N[C@@H](CC(C)C)C(=O)N[C@@H](CCCNC(=N)N)C(=O)N1CCC[C@H]1C(=O)N[C@H](C)C(N)=O` (single isomer, unassigned) [Example 1, Ac-D-Nal(2)-D(pCl)Phe-D-Pal(3)-Ser-Tyr-D-[ε-N'-(imidazolidin-2-on-4-yl)formyl]-Lys-Leu-Arg-Pro-D-Ala-NH2], in the series with histamine release, the “(IC50) Histamine releage” value is 31.9 µg/mL. The Kd amounted to 0.305 nM on human LH-RH receptor [1] (setting [4]) and 0.306 nM on human LH-RH receptor [1] (setting [5]). The “H2O Solubility” value in “Water solubility” stood at 27 mg/mL.
Turning to `CC(=O)N[C@H](Cc1ccc2ccccc2c1)C(=O)N[C@H](Cc1ccc(Cl)cc1)C(=O)N[C@H](Cc1cccnc1)C(=O)N[C@@H](CO)C(=O)N[C@@H](Cc1ccc(O)cc1)C(=O)N[C@H](CCCCNC(=O)C1CNC(=O)N1)C(=O)N[C@@H](CC(C)C)C(=O)N[C@@H](CCCNC(=N)N)C(=O)N1CCC[C@H]1C(=O)N[C@H](C)C(N)=O` (single isomer, unassigned) [Example 3], at human LH-RH receptor [1] (setting [5]), the Kd was determined as 0.17 nM.
For `CC(=O)N[C@H](Cc1ccc2ccccc2c1)C(=O)N[C@H](Cc1ccc(Cl)cc1)C(=O)N[C@H](Cc1cccnc1)C(=O)N[C@@H](CO)C(=O)N[C@@H](Cc1ccc(O)cc1)C(=O)N[C@H](CCCNC(N)=O)C(=O)N[C@@H](CC(C)C)C(=O)N[C@@H](CCCNC(=N)N)C(=O)N1CCC[C@H]1C(=O)N[C@H](C)C(N)=O` [Cetrorelix, Ac-D-Nal(2)-D-p-Cl-Phe-D-Pal(3)-Ser-Tyr-D-Cit-Leu-Arg-Pro-D-Ala-NH2, reference compound] (Ac-[d2Nal][dPhe(4-Cl)][d3Pal]SY[dCit]LRP[dA]-NH2), the “(IC50) Histamine releage” value with histamine release turned out to be 9.7 µg/mL. In addition, the equilibrium dissociation constant (Kd) at human LH-RH receptor [1] (setting [4]) turned out to be 0.214 nM; at human LH-RH receptor [1] (setting [5]), 0.202 nM. The “H2O Solubility” value in “Water solubility” came to 9 mg/mL. The “(1.5 mg/kg, single dose) testosterone suppression rats” value in series [2] (1.5 mg/kg, single dose, rats) came out at 144 h.
`CC(=O)N[C@H](Cc1ccc2ccccc2c1)C(=O)N[C@H](Cc1ccc(Cl)cc1)C(=O)N[C@H](Cc1cccnc1)C(=O)N[C@@H](CO)C(=O)N[C@@H](Cc1ccc(O)cc1)C(=O)N[C@H](CCCCNC(=O)CCC(=O)Nc1ccc(C(=N)N)cc1)C(=O)N[C@@H](CC(C)C)C(=O)N[C@@H](CCCNC(=N)N)C(=O)N1CCC[C@H]1C(=O)N[C@H](C)C(N)=O` [Example 2, Ac-D-Nal(2)-D(pCl)Phe-D-Pal(3)-Ser-Tyr-D-[ε-N'-4-(4-amidinophenyl)amino-1,4-dioxobutyl]-Lys-Leu-Arg-Pro-D-Ala-NH2] (Ac-[d2Nal][dPhe(4-Cl)][d3Pal]SY[dK]([Suc-NH(4-amidinophenyl)])LRP[dA]-NH2): the “(IC50) Histamine releage” value in the series on histamine release worked out at 17.1 µg/mL. Further, the IC50 at human LH-RH receptor [3] is about 0.4 nM. Besides, the Kd at human LH-RH receptor [1] (setting [4]) came to 0.104 nM; on human LH-RH receptor [1] (quoted in Example 84, read-out: in vitro binding affinity Kd, competitive binding test using [125I]-Cetrorelix) it was 0.109 nM. Also, the “H2O Solubility” value in the series “Water solubility” came to 23 mg/mL.
On to `CC(=O)N[C@H](Cc1ccc2ccccc2c1)C(=O)N[C@H](Cc1ccc(Cl)cc1)C(=O)N[C@H](Cc1cccnc1)C(=O)N[C@@H](CO)C(=O)N[C@@H](Cc1ccc(O)cc1)C(=O)N[C@H](CCCCNC(=O)CCC(=O)Nc1ccc(C(=N)N)cc1)C(=O)N[C@@H](CC(C)C)C(=O)N[C@@H](CCCNC(=N)N)C(=O)N1CCC[C@H]1C(=O)N[C@H](C)C(N)=O` [Example 4] (Ac-[d2Nal][dPhe(4-Cl)][d3Pal]SY[dK]([Suc-NH(4-amidinophenyl)])LRP[dA]-NH2), for which, at human LH-RH receptor [1] (setting [5]), the Kd worked out at 0.206 nM.
For `N=C(N)c1ccc(NC(=O)CCC(=O)NCCCCC(NC(=O)OCc2ccccc2)C(N)=O)cc1.O=C(O)C(F)(F)F` (stereo not shown) [Example 56], at human LH-RH receptor [3] (10 nM LH-RH, IP3 formation), the “functional character at the LH-RH receptor” value is reported as “functional antagonists of LH-RH”. Besides, the IC50 at human LH-RH receptor [3] is about 4000 nM. The “agonistic activity (stimulation of IP3 synthesis by the substance itself)” value at human LH-RH receptor [3] (without LH-RH) was “not possible to determine any agonistic activity”. Besides, at human LH-RH receptor [1] (setting [5]), the Kd came out at 1080 nM. In series [2] (setting [6]), the “duration of testosterone suppression” value was “up to 8 hours” and the “time at which testosterone level was already suppressed” value worked out at 2 h.
